The values below come from patent US6365634B1, “Naturally occurring compounds and their derivatives as cyclooxygenase 2 and/or 5-lipoxygenase inhibitors” (C-P Technology Limited Partnership, priority 1997, dated 2002).

This assay deals with human keratinocyte LTB4 production. Put plainly: Cell-based 5-LO assay: LTB4 production by cultured human keratinocytes (enzyme immunoassay). The settings on record: 5, 1.0, 0.2 and 0.04 uM, 24 hours, high calcium medium. The text has this: In addition to assessing the effect of dehydroabietic acid methyl ester on the production of PGE2 by human keratinocytes, the human keratinocyte culture system was also used to assess for the inhibition of LTB4 production. Keratinocytes have not been used as extensively as other cell types for 5-LO studies, however, human keratinocytes produce appreciable amounts of LTB4 and production of this eicosanoid by cultured keratinocytes is inhibited by known inhibitors of 5-LO (see FIG. 11). To assess for inhibition of LTB4 production, human keratinocytes were cultured as described above. Following introduction of the high calcium media, the identical dilution series of dehydroabietic acid methyl ester as described above in the PGE2 study was added to duplicate wells of keratinocytes. Twenty-four hours later culture media samples were removed from each well and the amount of LTB4 in each sample determined using an enzyme immunoassay specific for LTB4 (Cayman Chemical). As was done with the PGE2 assay described above, the percent inhibition was calculated based on a comparison between vehicle treated control cultures and cultures treated with dehydroabietic acid methyl ester or Rev 5901 (a specific 5-LO inhibitor; Cayman Chemical).

As for `COC(=O)[C@]1(C)CCC[C@]2(C)c3ccc(C(C)C)cc3CC[C@@H]12` [Dehydroabietic acid methyl ester, dehydroabietic acid methyl ester], the “inhibition of LTB4 production by cultured human keratinocytes” value is recorded as “inhibited the production of LTB4 by cultured human keratinocytes in a dose-dependent manner”.
